From the supplement of paper PMC8671470
Where a name gives a salt, the structure may show the parent alone.

Tested on: Mono-Mac-6
Assay: cell viability (% survival relative to DMSO control); higher = less cytotoxic
Settings: drug1 concentration 5 nM; drug2 concentration 50 nM; 72 h
Method: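 8x8 drug-combination matrices (0–5000 nM; rosiglitazone and lestaurtinib 0–1000 nM) were run in Mono-Mac-6 cells for 72 h with CellTiter-Glo read-out. Survival is normalised to DMSO and 10 µM bortezomib and clipped at 100%.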

For `CN(CCOc1ccc(Cc2sc(O)nc2O)cc1)c1ccccn1` [Rosiglitazone] + CC(C)(Cc1ccccc1)NCC(O)c1ccc(O)c(NS(C)(=O)=O)c1 [Zinterol hydrochloride], the cell viability was 79.1%.
`CN(CCOc1ccc(Cc2sc(O)nc2O)cc1)c1ccccn1` [Rosiglitazone] + c1cc(-c2cnn3cc(-c4ccc(OCCN5CCCCC5)cc4)cnc23)ccn1 [Dorsomorphin] showed a cell viability of 81.8%.

Same assay, conditions: drug1 concentration 5 nM; drug2 concentration 100 nM; 72 h

Compared with `O=C(O)CC[N+](=O)[O-]` [3-nitropropionic acid] + CCn1c(=Cc2cccc[n+]2CC)sc(=C2Sc3ccccc3N2C)c1=O [MKT 077], `CN(CCOc1ccc(Cc2sc(O)nc2O)cc1)c1ccccn1` [Rosiglitazone] + CC(C)(Cc1ccccc1)NCC(O)c1ccc(O)c(NS(C)(=O)=O)c1 [Zinterol hydrochloride] is lower in cell viability: 84.8% for the first, 77.4% for the second.

Compared with `CCn1c(=Cc2cccc[n+]2CC)sc(=C2Sc3ccccc3N2C)c1=O` [MKT 077] + CN(C)CCNC(=O)c1cccn2c(=O)c3cc4ccccc4cc3nc12 [Bmh-21], `CN(CCOc1ccc(Cc2sc(O)nc2O)cc1)c1ccccn1` [Rosiglitazone] + c1cc(-c2cnn3cc(-c4ccc(OCCN5CCCCC5)cc4)cnc23)ccn1 [Dorsomorphin] is higher in cell viability: 91.6% for the first, over 100% for the second.

Same assay, conditions: drug1 concentration 5 nM; drug2 concentration 500 nM; 72 h

Going from `O=C(O)CC[N+](=O)[O-]` [3-nitropropionic acid] + CCn1c(=Cc2cccc[n+]2CC)sc(=C2Sc3ccccc3N2C)c1=O [MKT 077] to `CN(CCOc1ccc(Cc2sc(O)nc2O)cc1)c1ccccn1` [Rosiglitazone] + CC(C)(Cc1ccccc1)NCC(O)c1ccc(O)c(NS(C)(=O)=O)c1 [Zinterol hydrochloride], the cell viability falls from 99.9% to 67.8%.

First: CCn1c(=Cc2cccc[n+]2CC)sc(=C2Sc3ccccc3N2C)c1=O [MKT 077] + CN(C)CCNC(=O)c1cccn2c(=O)c3cc4ccccc4cc3nc12 [Bmh-21]
Second: CN(CCOc1ccc(Cc2sc(O)nc2O)cc1)c1ccccn1 [Rosiglitazone] + c1cc(-c2cnn3cc(-c4ccc(OCCN5CCCCC5)cc4)cnc23)ccn1 [Dorsomorphin]
The cell viability of the first is higher: 90.4% for the first, 59.9% for the second.

Same assay, conditions: drug1 concentration 5 nM; drug2 concentration 1000 nM; 72 h

First: O=C(O)CC[N+](=O)[O-] [3-nitropropionic acid] + CCn1c(=Cc2cccc[n+]2CC)sc(=C2Sc3ccccc3N2C)c1=O [MKT 077]
Second: CN(CCOc1ccc(Cc2sc(O)nc2O)cc1)c1ccccn1 [Rosiglitazone] + CC(C)(Cc1ccccc1)NCC(O)c1ccc(O)c(NS(C)(=O)=O)c1 [Zinterol hydrochloride]
The cell viability of the first is higher: over 100% for the first, 86.7% for the second.

Going from `CCn1c(=Cc2cccc[n+]2CC)sc(=C2Sc3ccccc3N2C)c1=O` [MKT 077] + CN(C)CCNC(=O)c1cccn2c(=O)c3cc4ccccc4cc3nc12 [Bmh-21] to `CN(CCOc1ccc(Cc2sc(O)nc2O)cc1)c1ccccn1` [Rosiglitazone] + c1cc(-c2cnn3cc(-c4ccc(OCCN5CCCCC5)cc4)cnc23)ccn1 [Dorsomorphin], the cell viability falls from 76.7% to 38.6%.

Same assay, conditions: drug1 concentration 5 nM; drug2 concentration 5000 nM; 72 h

Compared with `O=C(O)CC[N+](=O)[O-]` [3-nitropropionic acid] + CCn1c(=Cc2cccc[n+]2CC)sc(=C2Sc3ccccc3N2C)c1=O [MKT 077], `CN(CCOc1ccc(Cc2sc(O)nc2O)cc1)c1ccccn1` [Rosiglitazone] + CC(C)(Cc1ccccc1)NCC(O)c1ccc(O)c(NS(C)(=O)=O)c1 [Zinterol hydrochloride] is lower in cell viability: 79.1% for the first, 64.8% for the second.

Going from `CCn1c(=Cc2cccc[n+]2CC)sc(=C2Sc3ccccc3N2C)c1=O` [MKT 077] + CN(C)CCNC(=O)c1cccn2c(=O)c3cc4ccccc4cc3nc12 [Bmh-21] to `CN(CCOc1ccc(Cc2sc(O)nc2O)cc1)c1ccccn1` [Rosiglitazone] + c1cc(-c2cnn3cc(-c4ccc(OCCN5CCCCC5)cc4)cnc23)ccn1 [Dorsomorphin], the cell viability falls from 46% to 9.54%.

Same assay, conditions: drug1 concentration 10 nM; drug2 concentration 5 nM; 72 h

Going from `O=C(O)CC[N+](=O)[O-]` [3-nitropropionic acid] + CCn1c(=Cc2cccc[n+]2CC)sc(=C2Sc3ccccc3N2C)c1=O [MKT 077] to `CN(CCOc1ccc(Cc2sc(O)nc2O)cc1)c1ccccn1` [Rosiglitazone] + CC(C)(Cc1ccccc1)NCC(O)c1ccc(O)c(NS(C)(=O)=O)c1 [Zinterol hydrochloride], the cell viability rises from 98.1% to over 100%.

Compared with `CCn1c(=Cc2cccc[n+]2CC)sc(=C2Sc3ccccc3N2C)c1=O` [MKT 077] + CN(C)CCNC(=O)c1cccn2c(=O)c3cc4ccccc4cc3nc12 [Bmh-21], `CN(CCOc1ccc(Cc2sc(O)nc2O)cc1)c1ccccn1` [Rosiglitazone] + c1cc(-c2cnn3cc(-c4ccc(OCCN5CCCCC5)cc4)cnc23)ccn1 [Dorsomorphin] is lower in cell viability: over 100% for the first, 93% for the second.

Same assay, conditions: drug1 concentration 10 nM; drug2 concentration 10 nM; 72 h

Compared with `O=C(O)CC[N+](=O)[O-]` [3-nitropropionic acid] + CCn1c(=Cc2cccc[n+]2CC)sc(=C2Sc3ccccc3N2C)c1=O [MKT 077], `CN(CCOc1ccc(Cc2sc(O)nc2O)cc1)c1ccccn1` [Rosiglitazone] + CC(C)(Cc1ccccc1)NCC(O)c1ccc(O)c(NS(C)(=O)=O)c1 [Zinterol hydrochloride] is lower in cell viability: over 100% for the first, 74.4% for the second.

Going from `CCn1c(=Cc2cccc[n+]2CC)sc(=C2Sc3ccccc3N2C)c1=O` [MKT 077] + CN(C)CCNC(=O)c1cccn2c(=O)c3cc4ccccc4cc3nc12 [Bmh-21] to `CN(CCOc1ccc(Cc2sc(O)nc2O)cc1)c1ccccn1` [Rosiglitazone] + c1cc(-c2cnn3cc(-c4ccc(OCCN5CCCCC5)cc4)cnc23)ccn1 [Dorsomorphin], the cell viability falls from over 100% to 84.3%.

Same assay, conditions: drug1 concentration 10 nM; drug2 concentration 50 nM; 72 h

First: O=C(O)CC[N+](=O)[O-] [3-nitropropionic acid] + CCn1c(=Cc2cccc[n+]2CC)sc(=C2Sc3ccccc3N2C)c1=O [MKT 077]
Second: CN(CCOc1ccc(Cc2sc(O)nc2O)cc1)c1ccccn1 [Rosiglitazone] + CC(C)(Cc1ccccc1)NCC(O)c1ccc(O)c(NS(C)(=O)=O)c1 [Zinterol hydrochloride]
The cell viability of the first is higher: over 100% for the first, 74.5% for the second.

First: CCn1c(=Cc2cccc[n+]2CC)sc(=C2Sc3ccccc3N2C)c1=O [MKT 077] + CN(C)CCNC(=O)c1cccn2c(=O)c3cc4ccccc4cc3nc12 [Bmh-21]
Second: CN(CCOc1ccc(Cc2sc(O)nc2O)cc1)c1ccccn1 [Rosiglitazone] + c1cc(-c2cnn3cc(-c4ccc(OCCN5CCCCC5)cc4)cnc23)ccn1 [Dorsomorphin]
The cell viability of the first is higher: 86.2% for the first, 78.8% for the second.

Same assay, conditions: drug1 concentration 10 nM; drug2 concentration 100 nM; 72 h

First: O=C(O)CC[N+](=O)[O-] [3-nitropropionic acid] + CCn1c(=Cc2cccc[n+]2CC)sc(=C2Sc3ccccc3N2C)c1=O [MKT 077]
Second: CN(CCOc1ccc(Cc2sc(O)nc2O)cc1)c1ccccn1 [Rosiglitazone] + CC(C)(Cc1ccccc1)NCC(O)c1ccc(O)c(NS(C)(=O)=O)c1 [Zinterol hydrochloride]
The cell viability of the first is higher: over 100% for the first, 78.3% for the second.

Going from `CCn1c(=Cc2cccc[n+]2CC)sc(=C2Sc3ccccc3N2C)c1=O` [MKT 077] + CN(C)CCNC(=O)c1cccn2c(=O)c3cc4ccccc4cc3nc12 [Bmh-21] to `CN(CCOc1ccc(Cc2sc(O)nc2O)cc1)c1ccccn1` [Rosiglitazone] + c1cc(-c2cnn3cc(-c4ccc(OCCN5CCCCC5)cc4)cnc23)ccn1 [Dorsomorphin], the cell viability falls from over 100% to 84.1%.

Same assay, conditions: drug1 concentration 10 nM; drug2 concentration 500 nM; 72 h

Going from `O=C(O)CC[N+](=O)[O-]` [3-nitropropionic acid] + CCn1c(=Cc2cccc[n+]2CC)sc(=C2Sc3ccccc3N2C)c1=O [MKT 077] to `CN(CCOc1ccc(Cc2sc(O)nc2O)cc1)c1ccccn1` [Rosiglitazone] + CC(C)(Cc1ccccc1)NCC(O)c1ccc(O)c(NS(C)(=O)=O)c1 [Zinterol hydrochloride], the cell viability falls from 82.8% to 67.6%.

In the case of `CCn1c(=Cc2cccc[n+]2CC)sc(=C2Sc3ccccc3N2C)c1=O` [MKT 077] + CN(C)CCNC(=O)c1cccn2c(=O)c3cc4ccccc4cc3nc12 [Bmh-21], the cell viability is reported as 93.3%.
